Assay results reported in ChEMBL document CHEMBL4665751, “Discovery of Clinical Candidate (5-(3-(4-Chlorophenoxy)prop-1-yn-1-yl)-3-hydroxypicolinoyl)glycine, an Orally Bioavailable Prolyl Hydroxylase Inhibitor for the Treatment of Anemia” (J Med Chem, 2020).

Key:
[1] = Clearance in Sprague-Dawley rat at 2 mg/kg, ig by LC-MS/MS analysis; type: ADME, organism-based; details: in vivo, po
[2] = Hepatotoxicity in male Sprague-Dawley rat assessed as change in albumin level at 15 to 200 mg/kg, po administered every alternate days for 2 weeks measured on day 14; type: toxicity, organism-based; details: in vivo, 336 h, dose 15-200 mg/kg, time 14 day
Egl nine homolog 1 [3] = biological target: T1, Egl nine homolog 1 (Homo sapiens, UniProt Q9GZT9); test: Inhibition of PHD2 in human Hep3B cells assessed as upregulation of EPO mRNA expression measured after 10 hrs by Trizol reagent based qRT-PCR analysis; type: cell-based; details: dose microM 5-50, time 10.0 hrs
T1 sequence (Q9GZT9 2-426 limits assumed): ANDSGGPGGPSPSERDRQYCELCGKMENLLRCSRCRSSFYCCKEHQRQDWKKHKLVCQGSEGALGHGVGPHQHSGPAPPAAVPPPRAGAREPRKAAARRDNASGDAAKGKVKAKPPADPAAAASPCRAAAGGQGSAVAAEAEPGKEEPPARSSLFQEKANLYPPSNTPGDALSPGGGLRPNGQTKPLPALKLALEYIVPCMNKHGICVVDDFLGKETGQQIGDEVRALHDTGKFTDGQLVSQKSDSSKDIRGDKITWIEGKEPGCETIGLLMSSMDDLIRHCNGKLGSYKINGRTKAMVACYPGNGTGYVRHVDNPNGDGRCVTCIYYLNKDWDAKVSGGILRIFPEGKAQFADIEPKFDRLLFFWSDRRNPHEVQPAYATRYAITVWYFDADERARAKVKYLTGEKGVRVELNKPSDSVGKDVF

[4] = Half-life in mouse liver microsome at 1 uM preincubated for 5 mins followed by NADPH addition measured up to 120 mins by LC-MS/MS analysis; type: ADME; details: liver microsomes, time <=125 min
[5] = Hepatotoxicity in male Sprague-Dawley rat assessed as change in albumin/globulin ratio at 15 to 200 mg/kg, po administered every alternate days for 2 weeks measured on day 14; type: toxicity, organism-based; details: in vivo, 336 h, dose 15-200 mg/kg, time 14 day
[6] = Oral bioavailability in Sprague-Dawley rat at 2 mg/kg by LC-MS/MS analysis; type: ADME, organism-based; details: in vivo
[7] = MRT (0 to infinity) in Sprague-Dawley rat at 2 mg/kg, ig by LC-MS/MS analysis; type: ADME, organism-based; details: in vivo, po
[8] = Hepatotoxicity in male Sprague-Dawley rat assessed as change in globulin level at 15 to 200 mg/kg, po administered every alternate days for 2 weeks measured on day 14; type: toxicity, organism-based; details: in vivo, 336 h, dose 15-200 mg/kg, time 14 day
Egl nine homolog 1 [9] = biological target: T1, Egl nine homolog 1; test: Inhibition of PHD2 in human MCF7 cells assessed as upregulation of HIFalpha expression at 50 uM incubated for 24 hrs by firefly/renilla luciferase reporter gene assay relative to control; type: cell-based
[10] = AUC (0 to infinity) in Sprague-Dawley rat at 1 mg/kg, iv by LC-MS/MS analysis; type: ADME, organism-based; set-up: time infinity, route intravenous, dose 1 mg/kg; details: in vivo
Hep 3B2 = test: Cytotoxicity against human Hep3B cells assessed as reduction in cell viability at 10 to 100 uM incubated for 72 hrs by MTT assay; type: cell-based; details: hep 3b2, 72 h, dose 10-100 µM
[11] = Apparent volume of distribution in Sprague-Dawley rat at 1 mg/kg, iv by LC-MS/MS analysis; type: ADME, organism-based; details: in vivo, read-out: Vz
[12] = Apparent volume of distribution in Beagle dog at 0.5 mg/kg, iv by LC-MS/MS analysis; type: ADME, organism-based, Canis lupus familiaris; details: in vivo, read-out: Vz
MCF7 = test: Cytotoxicity against human MCF7 cells assessed as reduction in cell viability at 10 to 100 uM incubated for 72 hrs by MTT assay; type: cell-based; details: mcf7, 72 h, dose 10-100 µM
[13] = In vivo inhibition of PHD2 in C57BL/6 mouse assessed as increase in EPO plasma level by measuring EPO level at 15 mg/kg, iv measured after 4 hrs by ELISA; type: functional
[14] = Genotoxicity in Salmonella typhimurium TA98 at 62.5 to 1000 ug incubated for 48 to 50 hrs in absence of S9 fraction by Ames test; type: toxicity, Salmonella enterica subsp. enterica serovar Typhimurium; details: in vivo; dose 62.5-1000 µg, time 48-50 hrs
[15] = Acute toxicity in Sprague-Dawley rat assessed as change in ratio of heart to body weight at 15 to 200 mg/kg, po administered every alternate days for 2 weeks measured on day 14; type: organism-based; details: in vivo, 336 h, dose 15-200 mg/kg, time 14 day
Egl nine homolog 1 [16] = biological target: T1, Egl nine homolog 1; test: Inhibition of PHD2 in human Hep3B cells assessed as increase in EPO expression measured after 24 hrs by ELISA; type: cell-based; details: dose microM 5-50, time 24.0 hrs
[17] = Acute toxicity in Sprague-Dawley rat assessed as change in growth at 15 to 200 mg/kg, po administered every alternate days for 14 days; type: organism-based; details: in vivo, 336 h, dose 15-200 mg/kg, time 14 day
Mus musculus [18] = test: Antianemic activity in cisplatin-induced C57BL/6 mouse anemia model assessed as improvement in anemia at 25 mg/kg, po administered every other day for 1 month; type: functional; details: time 1 months, 730 h
Homo sapiens [19] = species: Homo sapiens; test: Selectivity index, ratio of IC50 for PHD1 (unknown origin) by O-phenyl enediamine(OPD) based fluorescence assay to IC50 for PHD2 (unknown origin) by O-phenyl enediamine(OPD) based fluorescence assay
[20] = AUC (0 to t) in Beagle dog at 2 mg/kg, ig by LC-MS/MS analysis; type: ADME, organism-based, Canis lupus familiaris; set-up: dose 2 mg/kg; details: in vivo, po
[21] = Half-life in mouse hepatocytes at 100 uM incubated up to 120 mins by LC-MS/MS analysis; type: ADME, cell-based, Hepatocyte
Homo sapiens [22] = species: Homo sapiens; test: Selectivity index, ratio of IC50 for KDM3A (unknown origin) in presence of peptide substrate incubated for 30 mins by alpha screen assay to IC50 for PHD2 (unknown origin) by O-phenyl enediamine(OPD) based fluorescence assay
Cytochrome P450 2C9 = Cytochrome P450 2C9 (Homo sapiens, UniProt P11712); test: Inhibition of CYP2C9 (unknown origin) using diclofenac as substrate preincubated for 5 mins followed by addition of NADPH measured after 20 mins by LC-MS/MS analysis; type: ADME
Sequence of Cytochrome P450 2C9 (P11712 whole entry): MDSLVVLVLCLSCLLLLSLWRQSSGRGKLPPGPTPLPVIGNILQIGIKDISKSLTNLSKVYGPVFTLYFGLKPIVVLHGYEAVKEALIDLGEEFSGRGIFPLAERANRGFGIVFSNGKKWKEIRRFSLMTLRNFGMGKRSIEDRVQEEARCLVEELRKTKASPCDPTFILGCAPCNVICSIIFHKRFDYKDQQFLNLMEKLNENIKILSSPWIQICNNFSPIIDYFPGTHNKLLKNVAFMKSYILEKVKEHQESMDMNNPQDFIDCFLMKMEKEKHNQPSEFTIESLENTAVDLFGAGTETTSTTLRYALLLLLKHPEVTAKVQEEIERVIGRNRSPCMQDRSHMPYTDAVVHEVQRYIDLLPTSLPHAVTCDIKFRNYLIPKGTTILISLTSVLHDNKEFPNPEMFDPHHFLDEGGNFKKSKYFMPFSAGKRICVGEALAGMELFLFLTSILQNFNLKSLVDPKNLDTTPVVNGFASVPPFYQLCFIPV

Homo sapiens [23] = species: Homo sapiens; test: Selectivity index, ratio of IC50 for human ERG expressed in HEK293 cells by PatchLiner assay to IC50 for PHD2 (unknown origin) by O-phenyl enediamine(OPD) based fluorescence assay; type: cell-based
[24] = Half-life in Beagle dog at 0.5 mg/kg, iv by LC-MS/MS analysis; type: ADME, organism-based, Canis lupus familiaris; details: in vivo
L02 = test: Cytotoxicity against human L02 cells assessed as reduction in cell viability at 10 to 100 uM incubated for 72 hrs by MTT assay; type: cell-based; details: l02, 72 h, dose 10-100 µM
[25] = Half-life in rat hepatocytes at 100 uM incubated up to 120 mins by LC-MS/MS analysis; type: ADME, cell-based, Hepatocyte
[26] = Intrinsic clearance in dog liver microsome at 1 uM preincubated for 5 mins followed by NADPH addition measured up to 120 mins by LC-MS/MS analysis; type: ADME, Canis lupus familiaris; details: microsomes, 2 h, time <=125 min
[27] = Acute toxicity in Sprague-Dawley rat assessed as change in ratio of adrenal gland to body weight at 15 to 200 mg/kg, po administered every alternate days for 2 weeks measured on day 14; type: organism-based; details: in vivo, 336 h, dose 15-200 mg/kg, time 14 day
Mus musculus [28] = test: Induction of erythropoiesis in po dosed C57BL/6 mouse assessed as increase in red blood cell count administered thrice for 3 days measured 4 hrs post last dose; type: functional, organism-based; details: dose mg/kg 5-50, time 72.0 hrs
[29] = Acute toxicity in Sprague-Dawley rat assessed as change in ratio of thymus to body weight at 15 to 200 mg/kg, po administered every alternate days for 2 weeks measured on day 14; type: organism-based; details: in vivo, 336 h, dose 15-200 mg/kg, time 14 day
Egl nine homolog 1 [30] = biological target: T1, Egl nine homolog 1; test: Inhibition of PHD2 in human Hep3B cells assessed as upregulation of EPO mRNA expression at 50 uM measured after 10 hrs by Trizol reagent based qRT-PCR analysis relative to control; type: cell-based
[31] = AUC (0 to t) in Sprague-Dawley rat at 2 mg/kg, ig by LC-MS/MS analysis; type: ADME, organism-based; set-up: dose 2 mg/kg; details: in vivo, po
[32] = Cmax in Sprague-Dawley rat at 2 mg/kg, ig by LC-MS/MS analysis; type: ADME, organism-based; set-up: route […], dose 2 mg/kg; details: in vivo, po
[33] = Intrinsic clearance in mouse liver microsome at 1 uM preincubated for 5 mins followed by NADPH addition measured up to 120 mins by LC-MS/MS analysis; type: ADME; details: microsomes, 2 h, time <=125 min

## O=C(O)CNC(=O)c1ncc(C#CCOc2ccc(Cl)cc2)cc1O [DDO-3055]
[1]
  CL/F: 7.3 mL/min/kg
[2]
  Activity: Non-Toxic
Egl nine homolog 1 [3]
  inhibition: Dose-dependent effect
[4]
  half-life at 1 µM: > 2.32 h
[5]
  Activity: Non-Toxic
[6]
  bioavailability: 55.7%
[7]
  MRT inf: 9.43 h
[8]
  Activity: Non-Toxic
Egl nine homolog 1 [9]
  fold change (FC): 7
[10]
  AUC(0-inf): 4860 ng·h/mL
Hep 3B2
  Activity: Non-Toxic
[11]
  Vd: 2.52 L/kg
[12]
  Vd: 3.34 L/kg
MCF7
  Activity: Non-Toxic
[13]
  Activity: >1000 pg/mL
[14]
  Activity: Non-Toxic
[15]
  Activity: Non-Toxic
Egl nine homolog 1 [16]
  inhibition: Dose-dependent effect
[17]
  Activity: Non-Toxic
Mus musculus [18]
  Activity: 104.5%
Homo sapiens [19]
  Ratio IC50: 29
[20]
  AUC(0-t): 1360 ng·h/mL
[21]
  half-life at 100 µM: 8.68 min
Homo sapiens [22]
  Ratio IC50: > 1560
Cytochrome P450 2C9
  IC50: > 30 µM
Homo sapiens [23]
  Ratio IC50: > 467
[24]
  half-life: 2.91 h
L02
  Activity: Non-Toxic
[25]
  half-life at 100 µM: 0.538 h
[26]
  CLH: < 0.01 mL/min/kg
[27]
  Activity: Non-Toxic
Mus musculus [28]
  Activity: Dose-dependent effect
[29]
  Activity: Non-Toxic
Egl nine homolog 1 [30]
  fold change (FC): 7
[31]
  AUC(0-t): 4800 ng·h/mL
[32]
  Cmax: 1030 ng/mL
[33]
  CLH: < 0.01 mL/min/kg
